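Five concentrations, 48 hours, 96-well plates. At the GI50, growth is halved. TGI: concentration producing complete growth inhibition.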
Experiments:
Test in all cases: growth of human tumour cells (NCI), 48 h
HT29 colon = system: HT29 colon
LOX IMVI melanoma = system: LOX IMVI melanoma
SK-MEL-5 melanoma = system: SK-MEL-5 melanoma
MOLT-4 leukemia = system: MOLT-4 leukemia
SK-MEL-2 melanoma = system: SK-MEL-2 melanoma
MCF7 breast = system: MCF7 breast
HOP-92 NSCLC = system: HOP-92 NSCLC
MDA-MB-435 = system: MDA-MB-435
RPMI-8226 leukemia = system: RPMI-8226 leukemia

`CC1CCC(n2c3cnccc3c3cnc(Nc4ccc5c(n4)CCN(C(=O)CO)C5)nc32)CC1` (stereo not drawn) was tested, and the GI50 (HT29 colon) was 596 nM, the TGI (HT29 colon) was > 100000 nM and the GI50 (LOX IMVI melanoma) was 496 nM. For the same compound, the TGI (LOX IMVI melanoma) was > 100000 nM, the GI50 (SK-MEL-5 melanoma) was 792 nM and the TGI (SK-MEL-5 melanoma) was > 100000 nM. The GI50 (MOLT-4 leukemia) was 211 nM, the TGI (MOLT-4 leukemia) was > 100000 nM and the GI50 (SK-MEL-2 melanoma) was > 100000 nM. For the same compound, the TGI (SK-MEL-2 melanoma) was > 100000 nM, the GI50 (MCF7 breast) was 127 nM and the TGI (MCF7 breast) was > 100000 nM. For the same compound, the GI50 (HOP-92 NSCLC) was > 100000 nM, the TGI (HOP-92 NSCLC) was > 100000 nM and the GI50 (MDA-MB-435) was 660 nM. For the same compound, the TGI (MDA-MB-435) was > 100000 nM, the GI50 (RPMI-8226 leukemia) was 1430 nM and the TGI (RPMI-8226 leukemia) was > 100000 nM.
